# Experimental data as given in patent US10660928B2, “Pharmaceutical composition containing combination extracts of Moutan Root Bark, Angelica Dahurica Root, bupleurum root or fractions thereof for prevention and treatment of neurodegenerative disorder” (UNIVERSITY-INDUSTRY COOPERATION GROUP OF KYUNG HEE …, priority 2014, dated 2020).
# How the values were obtained:
# XBP1p = assay: RT-PCR of endoplasmic reticulum stress marker XBP1p, thapsigargin; assay type: cell-based, human; settings: treatment 0.5 μg/ml, thapsigargin 0.5 μg/ml; negative control 100.00
# Protocol: (§1) Particularly, SH-SY5Y cells were cultured by the same manner as described in Experimental Example <2-2>, and endoplasmic reticulum stress was induced. Then, RT-PCR was performed with the cells having endoplasmic reticulum stress by the same manner as described in Experimental Example <1-4>, followed by electrophoresis to investigate the expression levels of GRP78 and XBP1p genes on 1.5% agarose gel under UV. The normal control was not treated with the extract of the invention or the active component thereof but treated with DMSO alone. The negative control was not treated with the extract or the active component but treated with 0.5 μg/ml of thapsigargin alone to induce endoplasmic reticulum stress. Then, the expression of the endoplasmic reticulum stress marker gene was confirmed by the same manner as described above.
# (§2) Particularly, SH-SY5Y cells were cultured by the same manner as described in Experimental Example <2-2>, and endoplasmic reticulum stress was induced. Then, RT-PCR was performed with the cells having endoplasmic reticulum stress by the same manner as described in Experimental Example <1-4>, followed by electrophoresis to investigate the expression levels of GRP78 and XBP1p genes on 1.5% agarose gel under UV. The normal control was not treated with the extract of the invention but treated with DMSO alone. […]
# [1] = test system: SH-SY5Y, the human neuroblastoma cell line; assay: Cell survival rate (calcein) in normal cells, cytotoxicity; assay type: cell-based; settings: human, 4 h, 0.5 μg/ml
# Protocol: Particularly, SH-SY5Y, the human neuroblastoma cell line, was inoculated in DMEM/F12 (Dulbeco's Modified Eagle's Medium & Ham's F12; Gibco, USA) supplemented with 10% FBS, followed by culture in a 37° C., 5% CO2/95% air (O2) incubator. Then, the cultured cells were transferred into a serum free medium at the density of 2.5×10^4 cells/well. […] The cells were collected and the cell survival rate was measured by using calcein. The survival rate of the cells that were increased or decreased compared with that of the normal control cells not-treated with the extract or its active component above and instead treated with DMSO was calculated and presented as percentage (%). Particularly, SH-SY5Y cells were cultured by the same manner as described in Experimental Example <1-1>. The cultured cells were transferred in a serum free medium at the density of 2.5×10^4 cells/well. […] The cells were collected and the cell survival rate was measured by using calcein. The cell survival rate that was increased or decreased compared with that of the normal control group not-treated with the extract or its active component above and instead treated with DMSO was calculated and presented as percentage (%).
# SH-SY5Y cells [2] = assay: ATP assay, endoplasmic reticulum stress induced by thapsigargin or tunicamycin; assay type: cell-based, human; settings: treatment 0.5 μg/ml
# Protocol: Particularly, SH-SY5Y cells were cultured by the same manner as described in Experimental Example <2-2>, and endoplasmic reticulum stress was induced. Then, the intracellular ATP level was measured by the same manner as described in Experimental Example <1-3>. The normal control was not treated with the extract of the invention or the active component thereof but treated with DMSO alone. All the results were presented as % by the normal control to present the intracellular ATP level. The negative control was not treated with the extract or the active component but treated with 0.5 μg/ml of thapsigargin or 1.0 μg/ml of tunicamycin alone to induce endoplasmic reticulum stress. Then, the Intracellular ATP level was measured by the same manner as described above.
# SH-SY5Y cells [3] = assay: MTT assay, endoplasmic reticulum stress induced by thapsigargin or tunicamycin; assay type: cell-based, human; settings: treatment 0.5 μg/ml
# Protocol: Particularly, SH-SY5Y cells were cultured by the same manner as described in Experimental Example <1-2>. The cells were treated with 1.0 ug/ml of the Angelica Dahurica Root extract prepared in Example <1-2> or 0.5 μg/ml or 1.0 μg/ml of Imperatorin, the active component thereof, followed by culture for 4 hours. The cells were treated with 0.5 μg/ml of thapsigargin (Thap) or 1 μg/ml of tunicamycin (Tuni), followed by culture for 24 hours to induce endoplasmic reticulum stress. Then, MTT assay was performed by the same manner as described in Experimental Example <1-2>. Compared with the normal control cells not treated with the extract or the active component thereof but treated with DMSO, the damage of mitochondria complex 1 in the cells, either increased or decreased, was investigated. The negative control was treated with 0.5 μg/ml of thapsigargin or 1 μg/ml of tunicamycin to cause endoplasmic reticulum stress but not treated with the extract or the active component thereof, followed by MTT assay by the same manner as described above.
# GRP78 = assay: RT-PCR of endoplasmic reticulum stress marker GRP78, thapsigargin; assay type: cell-based, human; settings: treatment 0.5 μg/ml, thapsigargin 0.5 μg/ml; negative control 100.00
# Protocol: as §1, §2
smiles,measurement,setting,value
"CC(C)=CCOc1c2occc2cc2ccc(=O)oc12 [Imperatorin, 9-[(3-Methyl-2-buten-1-yl)oxy]-7h-furo[3,2-g][1]benzopyran-7-one]",XBP1p/18S mRNA,XBP1p,4.01 ± 0.05
same,Cell survival rate (% of control),[1],101.16 ± 0.59 % of control
same,Intracellular ATP content (% of control),SH-SY5Y cells [2]; inducer thapsigargin 0.5 μg/ml,104.85 ± 5.13 % of control
same,Intracellular ATP content (% of control),SH-SY5Y cells [2]; inducer tunicamycin 1.0 μg/ml,86.00 ± 1.18 % of control
same,MTT (% of control),SH-SY5Y cells [3]; inducer thapsigargin 0.5 μg/ml,86.23 ± 5.31 % of control
same,MTT (% of control),SH-SY5Y cells [3]; inducer tunicamycin 1.0 μg/ml,84.93 ± 3.68 % of control
same,GRP78/18S mRNA,GRP78,2.97 ± 0.05
